The text below walks through data of patent publication US20230280220A1, “Benzimidazole Derivative Compounds and Uses Thereof” (Pfizer Inc., priority 2019, published 2023).

For the experiment, the target named is ITK enzyme (ITK FL, N-Flag and C-His tagged) (Homo sapiens (Human), UniProt Q08881). Nature of the experiment: ITK enzyme assay (IL-2-inducible T-cell kinase activity). The experiment is classed as biochemical. The note with it: geometric mean of count n. The method, then:
IL-2-Inducible T-Cell Kinase (ITK) Activity, IC50 (nM)
ITK activity was determined by measuring the effect of a test compound in an ITK enzyme assay.
1.0 M HEPES Buffer pH 7.5 solution was prepared as follows: 238.3 g HEPES free acid (Sigma) and 800 mL of water were combined, and the mixture was stirred until complete dissolution. The pH was adjusted to 7.5 via titration with 5N NaOH and the volume adjusted to 1000 mL. The solution was filtered and sterilized.
ITK assay buffer was prepared as follows: 50 mL of HPLC-grade water was treated with 2 mL of 1.0 M HEPES Buffer, 500 μL of 2% Gelatin (Sigma), 1.0 mL of aqueous MgCl2 solution (1.0 M), and 1.0 mL of aqueous glutathione solution (0.5 M), and the solution was mixed. The solution was brought to 99 mL in a graduated cylinder by addition of water and sterilized through a 0.2 μm filter. 0.1 mL of Brij-35™ Surfact-Amps™ Detergent Solution (10% w/v aqueous solution, ThermoFisher) and 1.0 mL of ATP (Teknova, 100 mM) were added and the solution was mixed.
The resulting solution was stored on ice. 30 Minutes prior to use, the enzyme solution was removed from ice and equilibrated to RT by incubation in a RT water bath.
Preparation of 4×ITK substrate solution was as follows: 50 mL of ITK assay buffer was treated with 100 μL of BTK peptide (China Peptide Company, 2 mM stock solution in DMSO). The tube was capped, mixed by gently inverting the tube, and then stored on ice. 30 Minutes prior to use, the substrate solution was removed from ice and equilibrated to RT by incubation in a RT water bath.
At the time of assay, 7.5 μL of the 1.33×ITK enzyme solution was added to plate wells containing 0.1 μL of varying concentrations of test compound in DMSO. The plate was incubated 30 min at RT. The plate wells were each treated with 2.5 uL of the 4×ITK substrate solution and the plate was sealed (TopSeal™, Perkin Elmer). The plate was spun at 1000 rpm for 30 sec and then incubated for 60 min at RT. The seal was removed, and each well was treated with 10 μL of Stop/Detect Buffer (20 mM HEPES pH 7.5, 0.01% gelatin, 1 nM LANCE PT66 (Perkin Elmer), 16.5 μg/ml Surelight APC (Perkin Elmer), 10 mM EDTA, 250 mM NaCl). The plate was again covered and was spun at 1000 rpm for 30 seconds. The plate was allowed to incubate overnight at RT and in a closed carrier to reduce dehydration. The seal was removed, and the fluorescence was read with a plate reader with an excitation wavelength of […] and an emission wavelength of 615 nm.

Sequence of ITK enzyme (ITK FL, N-Flag and C-His tagged) (Q08881 whole entry): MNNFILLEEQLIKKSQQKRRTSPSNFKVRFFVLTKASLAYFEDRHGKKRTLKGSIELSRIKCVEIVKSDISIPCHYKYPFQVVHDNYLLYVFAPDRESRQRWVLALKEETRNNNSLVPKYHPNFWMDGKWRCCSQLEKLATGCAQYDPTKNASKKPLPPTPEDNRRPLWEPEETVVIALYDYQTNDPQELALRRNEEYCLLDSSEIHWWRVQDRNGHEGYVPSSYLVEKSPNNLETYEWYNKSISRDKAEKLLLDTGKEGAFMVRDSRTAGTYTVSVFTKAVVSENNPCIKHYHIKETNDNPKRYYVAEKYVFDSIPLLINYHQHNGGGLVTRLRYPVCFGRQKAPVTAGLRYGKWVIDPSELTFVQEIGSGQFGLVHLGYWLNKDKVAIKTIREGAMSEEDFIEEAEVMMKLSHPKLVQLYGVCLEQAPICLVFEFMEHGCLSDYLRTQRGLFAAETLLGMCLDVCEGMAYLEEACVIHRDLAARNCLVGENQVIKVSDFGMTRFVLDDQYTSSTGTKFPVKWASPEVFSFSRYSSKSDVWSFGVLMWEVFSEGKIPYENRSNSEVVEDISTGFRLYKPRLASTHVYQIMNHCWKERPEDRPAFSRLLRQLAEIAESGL

One may read the IC50 as the point on the concentration scale where inhibition reaches its midpoint. A high value points to a need for much substance. `Cc1cc2[nH]c(-c3n[nH]c4c3C[C@@H]3C[C@]3(C)C4)nc2cc1N(C)C(=O)CN1CCOC(C)(C)C1` [Example 29, 2-(2,2-Dimethylmorpholino)-N-methyl-N-(6-methyl-2-((4aS,5aR)-5a-methyl-1,4,4a,5,5a,6-hexahydrocyclopropa[f]indazol-3-yl)-1H-benzo[d]imidazol-5-yl)acetamide] returned an IC50 of 12 nM.

Consider `Cc1cc2[nH]c(-c3n[nH]c4c3C[C@@H]3C[C@]3(C)C4)nc2cc1N(C)C(=O)CN1CCO[C@H](CO)C1` [Example 26, 2-((S)-2-(hydroxymethyl)morpholino)-N-methyl-N-(6-methyl-2-((4aS,5aR)-5a-methyl-1,4,4a,5,5a,6-hexahydrocyclopropa[f]indazol-3-yl)-1H-benzo[d]imidazol-5-yl)acetamide], for which the midpoint of inhibition, the IC50, lay at 12 nM.

`C[C@@H](C(=O)N(C)c1cc2nc(-c3n[nH]c4c3C[C@@H]3C[C@]3(C)C4)[nH]c2cc1F)N1CCOCC1` [Example 17, (S)—N-(6-fluoro-2-((4aS,5aR)-5a-methyl-1,4,4a,5,5a,6-hexahydrocyclopropa[f]indazol-3-yl)-1H-benzo[d]imidazol-5-yl)-N-methyl-2-morpholinopropanamide] registered an IC50 of 5 nM. Against the preceding compound, the IC50 is about 2.4-fold lower.

For `C[C@@H](C(=O)N(C)c1cc(C#N)c2[nH]c(-c3n[nH]c4c3C[C@@H]3C[C@]3(C)C4)nc2c1)N1CCOCC1` [Example 38, (S)—N-(7-cyano-2-((4aS,5aR)-5a-methyl-1,4,4a,5,5a,6-hexahydrocyclopropa[f]indazol-3-yl)-1H-benzo[d]imidazol-5-yl)-N-methyl-2-morpholinopropanamide], the IC50 is 7 nM. The IC50 values of the last two compounds are within 1.5-fold of each other.

With `CN(C(=O)CC1CCOCC1)c1cc2nc(-c3n[nH]c4c3C[C@@H]3C[C@]3(C)C4)[nH]c2cc1C#N` [Example 54, N-(6-cyano-2-((4aS,5aR)-5a-methyl-1,4,4a,5,5a,6-hexahydrocyclopropa[f]indazol-3-yl)-1H-benzo[d]imidazol-5-yl)-N-methyl-2-(tetrahydro-2H-pyran-4-yl)acetamide], the IC50 amounted to 272 nM.

For `C[C@@H](C(=O)N(C)c1cc(CO)c2[nH]c(-c3n[nH]c4c3C[C@@H]3C[C@]3(C)C4)nc2c1)N1CCOCC1` [Example 45, (S)—N-(7-(hydroxymethyl)-2-((4aS,5aR)-5a-methyl-1,4,4a,5,5a,6-hexahydrocyclopropa[f]indazol-3-yl)-1H-benzo[d]imidazol-5-yl)-N-methyl-2-morpholinopropanamide], half-maximal inhibition (IC50) was put at 17 nM.

As to `Cc1cc(N(C)C(=O)[C@H](C)N2CCOCC2)cc2nc(-c3n[nH]c4c3C[C@@H]3C(F)(F)[C@]3(C)C4)[nH]c12` [Example 51, (S)—N-(2-((4aS,5aR)-5,5-difluoro-5a-methyl-1,4,4a,5,5a,6-hexahydrocyclopropa[f]indazol-3-yl)-7-methyl-1H-benzo[d]imidazol-5-yl)-N-methyl-2-morpholinopropanamide], the IC50 amounted to 2 nM.

`Cc1cc2[nH]c(-c3n[nH]c4c3C[C@@H]3C[C@]3(C)C4)nc2cc1N(C)C(=O)[C@H](C)C1CCOCC1` [Example 4, (R)—N-methyl-N-(6-methyl-2-((4aS,5aR)-5a-methyl-1,4,4a,5,5a,6-hexahydrocyclopropa[f]indazol-3-yl)-1H-benzo[d]imidazol-5-yl)-2-(tetrahydro-2H-pyran-4-yl)propanamide]: the IC50 is 3 nM.

`Cc1cc2[nH]c(-c3n[nH]c4c3C[C@@H]3C[C@]3(C)C4)nc2cc1N(C)C(=O)CN1CCO[C@H](C)C1` [Example 30, N-Methyl-N-(6-methyl-2-((4aS,5aR)-5a-methyl-1,4,4a,5,5a,6-hexahydrocyclopropa[f]indazol-3-yl)-1H-benzo[d]imidazol-5-yl)-2-((R)-2-methylmorpholino)acetamide] gave an IC50 of 15 nM.

As to `Cc1cc2[nH]c(-c3n[nH]c4c3C[C@@H]3C[C@]3(C)C4)nc2cc1N(C)C(=O)CN1C[C@H](C)O[C@@H](C)C1` [Example 33, 2-((2S,6S)-2,6-Dimethylmorpholino)-N-methyl-N-(6-methyl-2-((4aS,5aR)-5a-methyl-1,4,4a,5,5a,6-hexahydrocyclopropa[f]indazol-3-yl)-1H-benzo[d]imidazol-5-yl)acetamide], 11 nM corresponded to half-maximal inhibition (IC50).

For `C[C@@H](C(=O)N(C)c1ccc2[nH]c(-c3n[nH]c4c3C[C@@H]3C[C@]3(C)C4)nc2c1)N1CCOCC1` [Example 14, (S)—N-methyl-N-(2-((4aS,5aR)-5a-methyl-1,4,4a,5,5a,6-hexahydrocyclopropa[f]indazol-3-yl)-1H-benzo[d]imidazol-5-yl)-2-morpholinopropanamide], half-maximal inhibition (IC50) required 3 nM.

For the compound `C[C@@H](C(=O)N(C)c1cc2nc(-c3n[nH]c4c3C[C@@H]3C[C@]3(C)C4)[nH]c2cc1Br)N1CCOCC1` [Example 20, (S)—N-(6-bromo-2-((4aS,5aR)-5a-methyl-1,4,4a,5,5a,6-hexahydrocyclopropa[f]indazol-3-yl)-1H-benzo[d]imidazol-5-yl)-N-methyl-2-morpholinopropanamide], the half-maximal inhibitory concentration (IC50) turned out to be 5 nM.

In turn, `Cc1cc2[nH]c(-c3n[nH]c4c3C[C@@H]3C[C@]3(C)C4)nc2cc1N(C)C(=O)CN1CCO[C@@H](CO)C1` [Example 28, 2-((R)-2-(Hydroxymethyl)morpholino)-N-methyl-N-(6-methyl-2-((4aS,5aR)-5a-methyl-1,4,4a,5,5a,6-hexahydrocyclopropa[f]indazol-3-yl)-1H-benzo[d]imidazol-5-yl)acetamide] yielded an IC50 of 19 nM.

Consider `CCc1cc(N(C)C(=O)[C@H](C)N2CCOCC2)cc2nc(-c3n[nH]c4c3C[C@@H]3C[C@]3(C)C4)[nH]c12` [Example 44, (S)—N-(7-ethyl-2-((4aS,5aR)-5a-methyl-1,4,4a,5,5a,6-hexahydrocyclopropa[f]indazol-3-yl)-1H-benzo[d]imidazol-5-yl)-N-methyl-2-morpholinopropanamide], for which the IC50 worked out at 28 nM.

For `COc1cc(N(C)C(=O)[C@H](C)N2CCOCC2)cc2nc(-c3n[nH]c4c3C[C@@H]3C[C@]3(C)C4)[nH]c12` [Example 40, (S)—N-(7-methoxy-2-((4aS,5aR)-5a-methyl-1,4,4a,5,5a,6-hexahydrocyclopropa[f]indazol-3-yl)-1H-benzo[d]imidazol-5-yl)-N-methyl-2-morpholinopropanamide], the midpoint of inhibition, the IC50, lay at 19 nM.

With `Cc1cc2[nH]c(-c3n[nH]c4c3C[C@@H]3C[C@]3(C)C4)nc2cc1N(C)C(=O)CN1CCOC(CO)C1` (stereo partly drawn) [Example 27, 2-(2-(Hydroxymethyl)morpholino)-N-methyl-N-(6-methyl-2-((4aS,5aR)-5a-methyl-1,4,4a,5,5a,6-hexahydrocyclopropa[f]indazol-3-yl)-1H-benzo[d]imidazol-5-yl)acetamide], the half-maximal inhibitory concentration (IC50) amounted to 17 nM. This IC50 and that of the compound before are within 1.5-fold of each other.

Take `CCN(C(=O)[C@H](C)N1CCOCC1)c1cc2nc(-c3n[nH]c4c3C[C@@H]3C[C@]3(C)C4)[nH]c2cc1C` [Example 6, (S)—N-ethyl-N-(6-methyl-2-((4aS,5aR)-5a-methyl-1,4,4a,5,5a,6-hexahydrocyclopropa[f]indazol-3-yl)-1H-benzo[d]imidazol-5-yl)-2-morpholinopropanamide]: the IC50 worked out at 11 nM.

For the compound `Cc1cc2[nH]c(-c3n[nH]c4c3C[C@@H]3C[C@]3(C)C4)nc2cc1N(C)C(=O)C(C)C1CCOCC1` (stereo partly drawn) [Example 5, N-methyl-N-(6-methyl-2-((4aS,5aR)-5a-methyl-1,4,4a,5,5a,6-hexahydrocyclopropa[f]indazol-3-yl)-1H-benzo[d]imidazol-5-yl)-2-(tetrahydro-2H-pyran-4-yl)propanamide], the half-maximal inhibitory concentration (IC50) is 5 nM.

For the compound `C[C@@H](C(=O)N(C)c1cc(C#N)c2[nH]c(-c3n[nH]c4c3C[C@@H]3C[C@]3(C)C4)nc2c1)C1CCOCC1` [Example 55, (R)—N-(7-cyano-2-((4aS,5aR)-5a-methyl-1,4,4a,5,5a,6-hexahydrocyclopropa[f]indazol-3-yl)-1H-benzo[d]imidazol-5-yl)-N-methyl-2-(tetrahydro-2H-pyran-4-yl)propanamide], the IC50 was determined as 5 nM. This lies in the single-digit nanomolar range.

Compound `Cc1cc2[nH]c(-c3n[nH]c4c3C[C@@H]3C[C@]3(C)C4)nc2cc1N(C)C(=O)CN1C[C@@H](C)O[C@H](C)C1` [Example 32, 2-((2R,6R)-2,6-Dimethylmorpholino)-N-methyl-N-(6-methyl-2-((4aS,5aR)-5a-methyl-1,4,4a,5,5a,6-hexahydrocyclopropa[f]indazol-3-yl)-1H-benzo[d]imidazol-5-yl)acetamide] showed a 50% inhibitory concentration (IC50) of 16 nM.
